Results as given in patent US11504356B2, “Treatment for inflammatory disease” (REPOS PHARMA AB, priority 2017, dated 2022).

Legend:
[1] = tested on: Phospho-ERK 1/2 (p-ERK) in monocytoid THP-1 cells; experiment: p-ERK level in monocytoid THP-1 cells (Bioplex Pro / Luminex MAGPIX); format: cell-based; conditions: for effect on p-ERK levels: 10 μM, 1 hr exposure, monocytoid THP-1 cells, vs DMSO control
Experimental: Monocytoid THP-1 cells were obtained from ATCC (Manassas, Va.) and were cultured in RPMI-1640 medium, supplemented with 10% heat-inactivated fetal bovine serum (HIFBS), 2 mM L-glutamine, 100 U/100 […] penicillin/streptomycin and 0.05 mM 2-mercaptoethanol (all from Sigma, St Louis, Mo.). All cell lines were cultured at 37° C. in a humidified atmosphere containing 5% CO2. Phospho-ERK 1/2 (p-ERK) activity was measured using the Bioplex Pro Cell Signalling assay kit for ERK 1/2 (Biorad) and the Luminex MAGPIX® system according to the manufacturers' instructions. Measurements of p-ERK in CD4+ cells followed the protocol described by Gorelik et al. (J. Immunol. 2007; 179(8):5553-5563). Phosphorylation of ERK by upstream MAPK proteins such as MEK results in activation of ERK. Measurement of p-ERK levels in cells is used as an indicator of ERK signalling. The level of p-ERK in monocytoid THP-1 cells was measured using the Bioplex Pro Cell Signalling assay kit for ERK 1/2 (Biorad) and the Luminex MAGPIX® system. The assay is based on binding of the target of interest via antibodies to magnetic beads. The target is detected using biotinylated antibodies with a fluorescent reporter. The assay was performed according to the manufacturer's instructions. The levels of p-ERK in monocytoid THP-1 cells and PBMC cells were measured using the Bioplex Pro Cell Signalling assay kit for ERK 1/2 (Biorad) and the Luminex MAGPIX® system. The assay is based on binding of the target of interest via antibodies to magnetic beads. The target is detected using biotinylated antibodies with a fluorescent reporter. The assay was performed according to the manufacturer instructions. The levels of the phosphoprotein phospho-ERK (p-ERK) in cell lysates after 1 h exposure to mebendazole (10 μM)), fenbendazole (10 μM) or control (DMSO) in monocytoid THP-1 cells and PMA differentiated THP-1 macrophages was measured using the Luminex MAGPIX® system and the commercially available kit (Biorad, Hercules, Calif.) described above. The assay is based on binding of the target of interest via antibodies to magnetic beads. The target is detected using biotinylated antibodies with a fluorescent reporter. The assays were performed according to the manufacturer's instructions. Briefly, the protein concentrations in the cell lysates were first determined using a Micro-BCA method (ThermoFischer Scientific, Waltham, Mass., USA) to ensure equal amounts of samples in the assay and then measurements were performed by incubating the cell lysate samples with beads, then with detection antibody, and finally with streptavidin-PE. The fluorescence was measured using the MAGPIX instrument (BioRad) and the concentration levels were determined by fitting to a standard curve.

[2] = tested on: p-ERK in PMA differentiated THP-1 macrophages; experiment: p-ERK level in PMA differentiated THP-1 macrophages; format: cell-based; conditions: 10 μM, 1 hr exposure, vs DMSO control
Experimental: Phospho-ERK 1/2 (p-ERK) activity was measured using the Bioplex Pro Cell Signalling assay kit for ERK 1/2 (Biorad) and the Luminex MAGPIX® system according to the manufacturers' instructions. Measurements of p-ERK in CD4+ cells followed the protocol described by Gorelik et al. (J. Immunol. 2007; 179(8):5553-5563). The levels of the phosphoprotein phospho-ERK (p-ERK) in cell lysates after 1 h exposure to mebendazole (10 μM)), fenbendazole (10 μM) or control (DMSO) in monocytoid THP-1 cells and PMA differentiated THP-1 macrophages was measured using the Luminex MAGPIX® system and the commercially available kit (Biorad, Hercules, Calif.) described above. The assay is based on binding of the target of interest via antibodies to magnetic beads. The target is detected using biotinylated antibodies with a fluorescent reporter. The assays were performed according to the manufacturer's instructions. Briefly, the protein concentrations in the cell lysates were first determined using a Micro-BCA method (ThermoFischer Scientific, Waltham, Mass., USA) to ensure equal amounts of samples in the assay and then measurements were performed by incubating the cell lysate samples with beads, then with detection antibody, and finally with streptavidin-PE. The fluorescence was measured using the MAGPIX instrument (BioRad) and the concentration levels were determined by fitting to a standard curve.

[3] = tested on: anti-(double stranded)-DNA antibodies in serum of NZBNZWF1 mice; experiment: In vivo efficacy study in SLE model, NZBNZWF1 mice, serum anti-dsDNA antibodies
Experimental: 40 female NZBNZWF1 mice (Envigo Europe) were fed and watered ad libitum and acclimatised for approximately 1 week before initiation of the experiment. Mice were 14 weeks old at the initiation of the experiment, and 16 weeks are the start of treatment. The mice were divided into 4 treatment groups of 10 mice each at the initiation of the experiment: • 1. Vehicle control: treatment with vehicle only • 2. Positive control: treatment with methotrexate (15 mg/kg) • 3. […] The positive control treatment of 15 mg/kg methotrexate was administered intraperitoneally 3 times per week for 8 weeks (weeks 16-24 of age of the mice). […] Serum was collected from all mice at initiation of the experiment (mice age 14 weeks), at start of treatment (mice age 16 weeks), and every second week during treatment (mice age 18, 20, 22, and 24 weeks), after treatment (mice age 26 and 28 weeks) and at termination (mice age 30 weeks). The serum samples were analysed for levels of antibodies directed against double stranded DNA (dsDNA) (anti-ds-DNA antibodies).

p-ERK in PBMC cells = experiment: p-ERK level in peripheral blood mononuclear cells (PBMC); format: cell-based; conditions: PBMCs, FIG. 3b
Experimental: Peripheral blood mononuclear cells (PBMCs) from healthy donors were isolated by 1.077 g/ml Ficoll-Paque centrifugation and cryopreserved as described by Larsson et al. (Int J Cancer 1992; 50: 177-185). Cell viability was determined by trypan blue exclusion test. SLE PBMCs were obtained Astarte Biologics, WA, USA (cat no 1035, lot 3429DE16) in cryopreserved vials (10 million cells). CD4+ cells were subsequently isolated with an autoMACS® instrument and a CD4+ isolation kit from Miltenyi Biotec according to the manufacturer's description and the method described by Gorelik et al. (J. Immunol. 2007; 179(8):5553-5563). Phospho-ERK 1/2 (p-ERK) activity was measured using the Bioplex Pro Cell Signalling assay kit for ERK 1/2 (Biorad) and the Luminex MAGPIX® system according to the manufacturers' instructions. Measurements of p-ERK in CD4+ cells followed the protocol described by Gorelik et al. (J. Immunol. 2007; 179(8):5553-5563). The levels of p-ERK in monocytoid THP-1 cells and PBMC cells were measured using the Bioplex Pro Cell Signalling assay kit for ERK 1/2 (Biorad) and the Luminex MAGPIX® system. The assay is based on binding of the target of interest via antibodies to magnetic beads. The target is detected using biotinylated antibodies with a fluorescent reporter. The assay was performed according to the manufacturer instructions.

[4] = tested on: p-ERK in CD4+ T-cells from SLE patient; experiment: p-ERK in CD4+ T-cells isolated from PBMCs from an SLE patient; format: cell-based, human; conditions: 10 μM and 30 μM
Experimental: Peripheral blood mononuclear cells (PBMCs) from healthy donors were isolated by 1.077 g/ml Ficoll-Paque centrifugation and cryopreserved as described by Larsson et al. (Int J Cancer 1992; 50: 177-185). Cell viability was determined by trypan blue exclusion test. SLE PBMCs were obtained Astarte Biologics, WA, USA (cat no 1035, lot 3429DE16) in cryopreserved vials (10 million cells). CD4+ cells were subsequently isolated with an autoMACS® instrument and a CD4+ isolation kit from Miltenyi Biotec according to the manufacturer's description and the method described by Gorelik et al. (J. Immunol. 2007; 179(8):5553-5563). Phospho-ERK 1/2 (p-ERK) activity was measured using the Bioplex Pro Cell Signalling assay kit for ERK 1/2 (Biorad) and the Luminex MAGPIX® system according to the manufacturers' instructions. Measurements of p-ERK in CD4+ cells followed the protocol described by Gorelik et al. (J. Immunol. 2007; 179(8):5553-5563). CD4+ T-Cells were isolated from PBMCs obtained from the venous blood of healthy donors and patients with SLE using the method described in Gorelik et al. (J. Immunol. 2007; 179(8):5553-5563). The level of p-ERK in the isolated CD4+ T-Cells was measured using the Bioplex Pro Cell Signalling assay kit for ERK 1/2 (Biorad) and the Luminex MAGPIX® system.

[5] = Serum mebendazole concentration in treated patient; format: in vivo; conditions: human, 400 mg daily (2×200 mg), daily dose 400 mg (2×200 mg), after six weeks
Experimental: The serum mebendazole concentration at this time point was 71 ng/ml.

[6] = long-term high-dose (40 mg/kg/day); cited from earlier work
[7] = low-dose (Vermox), 6276 subjects, 39 clinical trials; cited from earlier work
[8] = Treatment of sarcoidosis patient, PET/CT examination; format: in vivo, human; conditions: one patient, 200 mg daily for six days then 400 mg daily (2×200 mg), after six weeks
Experimental: A daily dose of 200 mg (given as 2×100 mg) of mebendazole was administered for six consecutive days.

Row | SMILES | effect on p-ERK levels [1] | effect on p-ERK levels [2] | concentration of anti-dsDNA antibodies in serum vs vehicle control group or methotrexate positive control group ([3]; 25 mg/kg or 50 mg/kg p.o., 5 days per week, weeks 16-24) | concentration of anti-dsDNA antibodies in serum, higher dose vs lower dose ([3]; 50 mg/kg vs 25 mg/kg p.o.) | dose dependence of p-ERK level (p-ERK in PBMC cells) | p-ERK activity compared with CD4+ T-cells from a healthy donor [4] | concentration at 6 weeks [5] [ng/mL] | tolerability [6] | subjects with related adverse events [7] | effect on p-ERK levels in THP-1 cells ([1]; FIG. 2, comparison with other tubulin-active agents) | dose dependence of p-ERK level ([1]; THP-1 cells not treated with U0126) | p-ERK fluorescence reading ([1]; THP-1 cells not treated with U0126, 30 μM mebendazole) | p-ERK fluorescence reading ([1]; THP-1 cells not treated with U0126, 1 μm mebendazole) | PET scan outcome: FDG-signal and size of hilar and mediastinal nodes [8]
1 | COC(=O)Nc1nc2ccc(Sc3ccccc3)cc2[nH]1 [Fenbendazole, fenbendazole] | did not increase | did not increase |  |  |  |  |  |  |  |  |  |  |  | 
2 | COC(=O)Nc1nc2ccc(C(=O)c3ccccc3)cc2[nH]1 [mebendazole, Mebendazole] | significantly increased | significantly increased | lower concentrations | lower concentration | increased with an increasing dose | restored the activity of p-ERK to at least the same level | 71 | generally well tolerated | less than 1% | significantly increased | increased with an increasing dose | approximately 1200 arb units | approximately 500 arb units | sarcoidosis in remission
